Assay results published in patent US20180085460A1, “METHODS OF TREATING PROSTATITIS” (Aquinox Pharmaceuticals (Canada) Inc., priority 2016, published 2018).

Assays:
Assay type in all cases: in vivo
[1] = test system: carrageenan-induced prostatitis model in male Sprague-Dawley rats; assay: Pelvic pain (von Frey filaments) in carrageenan-induced prostatitis model
Method: Animals were acclimatized to the laboratory conditions for at least 3 days before the start of experiments. Rats were housed in groups of 2 in polysulfone type Sealsafe plus GR900 cages (Tecniplast, Lyon, France) on a bed of wood chips with free access to food and water ad libitum. Species appropriate environmental enrichment was added to the cages. The animal house was maintained under artificial lighting 7:00 a.m. to 7:00 p.m. in a controlled ambient temperature of 22±2° C., and relative humidity maintained at 55±10%.
Mechanical stimulation was performed using von Frey filaments of different forces.
For each day of administration, the stock solution was allowed to equilibrate to room temperature under stirring, for at least 30 min.
Carrageenan was purchased from Sigma-Aldrich. Carrageenan (prepared fresh each day of injection) was dissolved in sterile physiological saline at a final concentration of 30 mg/mL (w/v).
Seven experimental groups of 10 animals were included in this study as described in the table below.
(§1) At D0, D+1, D+3 and D+7 administrations were performed 2 h prior to von Frey testing. […] On the morning of each experimental day, rats were weighed and administrations were performed at a volume of 5 mL/kg.
(§2) Surgical procedures were performed in morning, as follows: anaesthesia was induced by 5% isoflurane and maintained with 2.5% isoflurane for the duration of the procedure. The surgical area (lower abdomen above the penis) and the scrotal skin were shaved. An incision was made in the skin and abdominal wall to expose both ventral lobes of the prostate gland. Carrageenan (30 mg/mL) was injected in both right and left ventral lobes of the prostate (˜12.5 μL per lobe).
Control rats were injected with physiological saline under the same experimental conditions as carrageenan (i.e. i.prost., ˜12.5 μL per lobe).
After i.prost. injection, the wounds in both muscles were closed using absorbable suture and the skin layers were closed using permanent suture.
Pelvic pain was evaluated in a non-blinded manner by applying 6 von Frey filaments of increasing forces (0.16, 0.4, 0.6, 1, 1.4 and 2 g) to the scrotum area, with an interval of 5 seconds between each filament.
Prior to testing, the scrotal skin area designated for mechanical stimulation of each animal was shaved. Animals were placed on a raised wire mesh floor under individual transparent Plexiglas boxes and acclimatized for at least 30 min before starting the von Frey test. Filaments were then applied 1-2 seconds through the mesh floor with enough strength to cause the filament to slightly bend. Each filament was tested 3 times with an interval of 5 seconds between each application.
Nociceptive behavioral scores to von Frey filaments were assessed just before saline or carrageenan injection, in order to obtain basal values (D0), and at defined time points (D+1, D+3 and D+7) after saline or carrageenan injection.
Nociceptive behaviors were scored for each animal and each filament as follows: […]

[2] = test system: ventral prostate lobes of carrageenan-injected male Sprague-Dawley rats; assay: Ventral prostate lobes weight 7 days after carrageenan i.prost. injection; conditions: AQX-1125 0.3, 1, 3 or 10 mg/kg p.o.; seven days after carrageenan injection
Method: The whole prostate and ventral prostate lobes were weighed using a Scout® Pro balance (OHAUS, Nänikon, Switzerland).
as §1, with “AQX-1125 (0.3, 1, 3 and 10 mg/kg) or saline vehicle were administered orally (p.o.) once a day from D−3 to D+7 for a total of 11 administrations. At” for “At”
as §2
After blood sampling, rats were sacrificed by cervical dislocation and the whole prostates were rapidly collected and weighed. Then both ventral prostate lobes were dissected and weighed together.

[3] = test system: carrageenan-induced pelvic pain in male Sprague-Dawley rats; assay: Previous study: carrageenan-induced pelvic pain, AQX-1125 3, 10 and 30 mg/kg
From the text: An animal model of inflammation-induced pelvic pain for inflammatory CP/CPPS was developed and validated using intraprostatic (i.prost.) injection of carrageenan in male Sprague-Dawley rats (adapted from Radhakrishnan, R. and Nallu, R. S., 2009. Development and characterization of a novel animal model of prostate inflammation-induced chronic pelvic pain, Inflammopharmacology, 17: 23-28). This animal model was characterized by both referred mechanical allodynia (decreased mechanical threshold in response to innocuous von Frey forces) and referred mechanical hyperalgesia (increased nociceptive scores in response to noxious von Frey forces) (Augé C. et al., 2012, Nociceptive measures in chronic prostatitis: a model of inflammation-induced pelvic pain in rats, 14th World Congress on Pain (Milan, Italy)).

[4] = test system: carrageenan-induced prostatitis model in male Sprague-Dawley rats; assay: Pelvic pain (von Frey filaments) in carrageenan-induced prostatitis model; remark: listed apart in the source
[5] = Ibuprofen 300 mg/kg p.o. once at D+3, 1 h prior to testing, p<0.001

SMILES	nociceptive threshold vs vehicle ([1]; AQX-1125 10 mg/kg p.o. once a day, D+1 p>0.05, D+3 and D+7 p<0.05)	AUC (0.16-2 g) of nociceptive scores vs vehicle ([1]; AQX-1125 10 mg/kg p.o., D+1 p>0.05, D+3 p<0.01, D+7 p<0.05)	nociceptive scores vs vehicle ([1]; AQX-1125 0.3, 1, 3 and 10 mg/kg p.o., all tested time-points (D+1, D+3, D+7))	nociceptive threshold vs vehicle ([1]; AQX-1125 0.3, 1 and 3 mg/kg p.o. once a day, day 1, 3 and 7 post-carrageenan, p<0.05)	AUC (0.16-2 g) of nociceptive scores vs vehicle ([1]; AQX-1125 0.3, 1 and 3 mg/kg p.o., all tested time-points, p<0.01)	significance of effect on nociceptive scores ([1]; AQX-1125 all doses, 10 mg/kg at D1 p=0.0638)	anti-nociceptive properties beyond the optimal dose ([1]; AQX-1125 beyond 3 mg/kg (10 mg/kg p.o.))	carrageenan-induced pelvic pain ([1]; AQX-1125 daily oral treatments at 0.3, 1 and 3 mg/kg)	dose at which maximal effect was reached ([1]; AQX-1125 p.o. once a day, doses tested 0.3, 1, 3 and 10 mg/kg) [mg/kg]	anti-nociceptive properties on carrageenan-induced pelvic pain ([1]; AQX-1125 repeated oral treatments once a day during 11 days at 0.3, 1 and 3 mg/kg)	optimal dose for pain management ([1]; rat model of carrageenan-induced chronic prostatitis, p.o.) [mg/kg]	ventral prostate lobes weight as a ratio of whole prostate weight [2]	ventral prostate lobes weight expressed in mg [2]	anti-nociceptive properties on carrageenan-induced pelvic pain ([3]; AQX-1125 3, 10 and 30 mg/kg p.o. once a day during 11 days)	dose at which maximal effect was reached ([3]; doses tested 3, 10 and 30 mg/kg p.o.) [mg/kg]	nociceptive scores vs vehicle [4, 5]	nociceptive threshold vs vehicle [4, 5]	carrageenan-induced pelvic pain ([4]; Ibuprofen 300 mg/kg, 1 h after oral administration)
C=C1CC[C@H]2[C@H](CN)[C@@H]([C@@]3(C)CC[C@H](O)C[C@@H]3CO)CC[C@]12C [AQX-1125, (1S,3S,4R)-4-((4R,7aS)-4-(aminomethyl)-7a-methyl-1-methyleneoctahydro-1H-inden-5-yl)-3-(hydroxymethyl)-4-methylcyclohexanol]	reached the significance level only at day 3 and 7	a significant effect was observed only at day 3 and 7	decreases in nociceptive scores were observed	significantly and dose-dependently increased the nociceptive threshold	significant decreases in AUC (0.16-2 g) were observed	reached significance, except for the 10 mg/kg dose at D1	less pronounced anti-nociceptive properties	significant and dose-related decreases in carrageenan-induced pelvic pain	3	strong anti-nociceptive properties	3	had no effect on ventral prostate lobes weights	had no effect on ventral prostate lobes weights	strong anti-nociceptive properties	3	–	–	–
CC(C)Cc1ccc(C(C)C(=O)O)cc1 (racemic) [Ibuprofen, (RS)-2-(4-(2-methylpropyl)phenyl)propanoic acid]	–	–	–	–	–	–	–	–	–	–	–	–	–	–	–	decreases in nociceptive scores	a significant increase in the nociceptive threshold was observed	alleviated carrageenan-induced pelvic pain
